Data published in paper PMC9858427, “Design, synthesis and biological evaluation of 2-((4-sulfamoylphenyl)amino)-pyrrolo[2,3-d]pyrimidine derivatives as CDK inhibitors” (Journal of Enzyme Inhibition and Medicinal Chemistry, 2023).

Experiments:
[1] = system: MIA PaCa-2 cells; test: Apoptosis analysis by PI and annexin V-FITC staining and flow cytometry; format: cell-based, human; conditions: 24 h treatment
Description: MIA PaCa-2 cells were incubated with test compound at given concentration for indicated time in 6 well plates. The cells were collected and washed with cold PBS for two times. For cell cycle analysis, cells were fixed with 1 ml of 70% ethanol at −20 °C overnight then re-suspended with 400 µL binding buffer at density of 10^6 cells/mL, with PI staining for 30 min at room temperature. DNA contents were analysed by a BD Accuri C6 flow cytometry (BD Biosciences, Mountain View, CA, USA). For cell apoptosis analysis, after centrifugation and removal of the supernatants, cells were resuspended in 500 µL of 1 ×binding buffer which was then added to 5 µL of annexin V-FITC and incubated at room temperature for 10 min. After adding 10 µL of PI the cells were incubated at room temperature for another 10 min, and their fluorescence intensity evaluated by a BD Accuri C6 (BD Biosciences, Mountain View, CA, USA).

[2] = biological target: CDK7 (Homo sapiens, UniProt P50613); test: CDK7 kinase IC50, Mobility shift assay; format: biochemical
Chain of CDK7 (P50613 whole entry): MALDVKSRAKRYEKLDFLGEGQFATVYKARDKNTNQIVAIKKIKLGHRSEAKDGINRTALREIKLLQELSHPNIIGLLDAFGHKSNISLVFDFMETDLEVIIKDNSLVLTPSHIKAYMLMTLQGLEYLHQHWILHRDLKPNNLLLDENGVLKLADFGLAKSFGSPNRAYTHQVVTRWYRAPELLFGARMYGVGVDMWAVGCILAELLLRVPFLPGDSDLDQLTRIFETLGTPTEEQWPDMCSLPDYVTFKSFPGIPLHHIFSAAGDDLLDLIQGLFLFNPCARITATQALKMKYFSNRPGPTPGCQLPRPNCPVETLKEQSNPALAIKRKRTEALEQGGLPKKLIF
Chain of CDK7 (P51946 whole entry partner): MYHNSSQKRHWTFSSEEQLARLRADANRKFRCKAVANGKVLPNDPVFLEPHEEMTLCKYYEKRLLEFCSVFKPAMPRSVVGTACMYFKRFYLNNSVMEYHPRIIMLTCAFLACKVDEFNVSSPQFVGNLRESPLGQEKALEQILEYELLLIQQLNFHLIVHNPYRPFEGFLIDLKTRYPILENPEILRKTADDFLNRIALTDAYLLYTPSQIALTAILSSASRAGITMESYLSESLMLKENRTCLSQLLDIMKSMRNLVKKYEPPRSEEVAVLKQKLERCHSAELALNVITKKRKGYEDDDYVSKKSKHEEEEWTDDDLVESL
Chain of CDK7 (P51948 whole entry partner): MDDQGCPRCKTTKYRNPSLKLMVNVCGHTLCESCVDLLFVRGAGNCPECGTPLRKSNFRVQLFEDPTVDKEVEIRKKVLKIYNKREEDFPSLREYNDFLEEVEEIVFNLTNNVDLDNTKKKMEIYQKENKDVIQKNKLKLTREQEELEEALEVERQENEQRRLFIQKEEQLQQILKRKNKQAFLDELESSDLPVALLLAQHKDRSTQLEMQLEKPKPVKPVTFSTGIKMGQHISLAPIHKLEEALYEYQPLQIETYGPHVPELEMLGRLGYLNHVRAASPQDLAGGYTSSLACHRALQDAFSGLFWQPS
Description: CDK kinase activity (IC50 values and inhibitory rate at single concentration) was measured using the kinase profiling services (Shanghai ChemPartner Co., Ltd). Compounds were sent to ChemPartner as a solution in DMSO at concentration of 10 mM.

With `CN(C)C(=O)c1cc2cnc(Nc3ccc(S(N)(=O)=O)cc3)nc2n1C1CCCC1` [compound 2g, 7-Cyclopentyl-N,N-dimethyl-2-((4-sulfamoylphenyl)amino)-7H-pyrrolo[2,3-d]pyrimidine-6-carboxamide] the “number of late apoptotic cells” value [1] was “increased in a dose-dependent manner” and the IC50 [2] was over 10000 nM.
